From a melting point compilation (Tetko et al.; mined from patent text by program, amines drawn as free bases though some values may be those of a salt)

| Compound | melting point [°C] |
| --- | --- |
| Cc1nc(Cc2ccc(NC(=O)/C=C/c3cnn(C)c3-c3ccc(F)cc3)cc2)sc1C | 210 to 211 |
| NNC1=NCCCCN1 | 133 to 135 |
| N#Cc1cc2c(cc1F)OCC21C(=O)N(Cc2ccccc2C(F)(F)F)c2ccccc21 (stereo not given) | 193 to 195 |
| CC(C1CC1)N1C(=O)c2cc([N+](=O)[O-])cnc2C1=O (stereo not given) | 96 to 99 |
| CC(CC1CNc2nc(N)nc(O)c2C1)c1ccc(C(=O)N[C@@H](CCC(=O)O)C(=O)O)cc1 (stereo not given in full) | > 250 |
| Cc1cc(-c2ccc(Cl)c(Cl)c2)nc(-c2ccnc(-c3ccc(S(N)(=O)=O)s3)c2)n1 | 267 |
| CCCCCc1ccc(OC(=O)c2ccc(OCC)c(F)c2F)cc1 | 61 |
| CCC1(CC(=NNc2ccc([N+](=O)[O-])cc2[N+](=O)[O-])C(=O)OC)CCCN2CCc3c([nH]c4ccccc34)C21 (stereo not given) | 205 to 206 |
| COc1ccc(C(C)=Cc2ccncc2)c2c1OC1(CCCC1)C2 | 85 to 87 |
| CN1CCC2(CC1)c1ccccc1C(O)c1ccccc12 | 208 to 210 |
| CN(C)c1ccc2cc(C(/C=C\NCCO)=C(C#N)C#N)ccc2c1 | 168 to 170 |
| CCCCCCCCCCCCSC(C)(C)C(=O)O | 62 to 64 |
| Cc1cnc2c(c1)CCCC2O (stereo not given) | 58 |
| O=C1CCC(CCO)(c2ccc(F)c(F)c2)CN1Cc1cc(C(F)(F)F)cc(C(F)(F)F)c1 (stereo not given) | 120 |
| c1ccc(CSc2nc3sccn3n2)cc1 | 91 to 93 |
| CC(C)=CCC/C(C)=C/COCC(=O)c1cc(C(C)C)c(O)c(C(C)C)c1 | 70 to 71 |
| CC(=O)Nc1ccc2c(c1)CC(CN1CCC(c3c[nH]c4cc(Cl)ccc34)CC1)C2 (stereo not given) | 151 to 152 |
| Cc1nc2cc(C34CC5CC(CC(C5)C3)C4)cc(-c3ccc(C=C4SC(=S)NC4=O)cc3)c2o1 | > 360 |
| CCSc1nc(=O)n(C(=O)NC)s1 | 131 |
| CC1=CC(=O)C(C)=C2CC(C)(C)N=C12 | 107 to 109 |
| CCOc1ccc(C2C(C(=O)c3ccc(C(C)C)cc3)=C(O)C(=O)N2c2ccc(C)nn2)nc1 (stereo not given) | 198 to 199 |
| CNC(=NC(=O)OC)N(C)C | 80 to 85 |
| CC(C#Cc1ccc(Oc2ccc(C(C)(C)C)cc2)o1)N(O)C(N)=O (stereo not given) | 144 to 145 |
| Cc1nccn1-c1nc(-c2ccc(Cl)cc2)c(CCC(=O)OCc2ccccc2)o1 | 71 to 72 |
| O=C(N[C@H](Cc1cccc(C(F)(F)F)c1)[C@@H](O)c1ccc(F)cc1)c1cccc2ccccc12 (racemic) | 158 to 159 |

| Compound | melting point [°C] |
| --- | --- |
| Fc1ccc(-c2cc(C(F)(F)F)n3cnc(-c4ccncc4)c3n2)cc1Cl | 266 |
| c1ccc(-c2ccnc3ncnn23)cc1 | 140 |
| CCCCc1ccc(N)c(C(=O)C(=O)OC(=O)C(=O)c2cc(CCCC)ccc2N)c1 | 218 to 220 |
| CC(C(N)=O)c1ccc2c(c1)Sc1ccccc1CC2=O (stereo not given) | 178 to 179 |
| CCOC(=O)COc1ccc(-c2c(Cl)c(CN3C(=O)CCC3=O)nc3sc4c(c23)CCS(=O)(=O)C4)cc1 | 215 to 216 |
| CC1(C)C=C(c2cccc(C(F)(F)F)c2)c2ccc(O)cc2O1 | 102 to 106 |
| CC(C)(C)OC(=O)N1CCN(S(=O)(=O)c2ccc(S(=O)(=O)c3ccc4cc(Br)ccc4c3)cc2)CC1 | 213 to 215 |
| O=C(CC(=O)C(F)F)c1ccc(Cl)cc1 | 65 to 66.5 |
| Cn1ccc(-c2ccc(C(=O)N3Cc4cccnc4Nc4ccccc43)c(Cl)c2)n1 | 196 to 197 |
| COCCc1cc(N2CCNCC2)n2nc(SC)c(S(=O)(=O)c3ccccc3)c2n1 | 170 to 171 |
| CCCCCCCCCCc1c(C)nc2ccccn2c1=O | 66 to 67.5 |
| O=c1[nH]ccn1-c1ccc(F)cc1 | 166 to 167 |
| CC(C)NC(=O)CCCCc1cc(O)c(O)c([N+](=O)[O-])c1 | 113 to 115 |
| O=c1[nH]c2sc3cc(Br)c(F)cc3c2[nH]c1=O | > 300 |
| CCCc1c(OCCCOc2ccc3c(c2CCC)OC(CCC(=O)O)CC3)ccc(C(C)=O)c1O (stereo not given) | 109 to 110 |
| O=C1C2=C(CCCC2)C(=O)N1c1cc(CO)c(Cl)cc1F | 135 to 137 |
| CCOC(=O)N1CCC(=C2c3ccc(Cl)cc3SCc3cccnc32)CC1 | 154 to 157 |
| CN1C(=N)c2c(Cl)cccc2S1(=O)=O | 92.5 to 95 |
| CC(C(=O)O)c1ccc(C(F)(F)F)cc1 (stereo not given) | 56 to 58 |
| COC(=O)CC(Nc1ccccc1)c1ccccc1 (stereo not given) | 110 |
| Cc1cccc(C(=O)C(Br)c2ccnc(F)c2)c1 (stereo not given) | 66 to 67 |
| CC(C)(C)c1ccc(C(=O)Nc2cn3cc(Br)ccc3n2)cc1 | 249 to 250 |
| CCn1c(N)c(C(N)=O)c(=O)c2ccc(-c3ccncc3)cc21 | > 300 |
| CN1CC(C(=O)c2oc(C3CCS(=O)(=O)CC3)cc2Cc2ccc(F)cc2)=C(O)C1=O | 200 to 203 |
| Cc1ccc(CSc2nc(C)n(C)c(=O)c2Br)cc1 | 73 to 74 |
